# Laboratory results from publication PMC3820767, “Turning Defense into Offense: Defensin Mimetics as Novel Antibiotics Targeting Lipid II” (PLoS Pathogens, 2013).
# Experiments:
# S. aureus ATCC 29213 = assay: Murine peritoneal sepsis model; format: in vivo, C57BL/6J mice; details: mice n = 5, i.p. treatment 1 h and 4 h post-infection; compound […], vancomycin/lysostaphin 5 mg/kg
# Procedure: Mice were fed standard chow (Harlan Laboratories) and water ad libitum. […] Animals were closely observed during a period of 24 hours and mice that show signs of severe sepsis were humanely euthanized. Blood samples were collected by retro-orbital puncture at the indicated intervals post-infection using lithium-heparin polystyrene tubes to prevent coagulation. […] Whole blood samples and spleen homogenates were serially diluted and plated onto LB agar plates.
# [1] = Cytotoxicity by MTT assay; format: cell-based, human; details: human, Jurkat cells; concentration resulting in 50% cell survival, MTT, 4 h; read-out: Cytotoxicity (C50%) Jurkat
# [2] = Surface Plasmon Resonance binding to immobilized 3-Lipid II; details: SPR; for Binding on Lipid II?: Table S3, initial determination at 10 µM
# Method in brief: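 Binding was measured by Surface Plasmon Resonance on a BIAcore T100 instrument at 25°C. Peptides were injected over the sensor flow-cells at 30 µl/min in running buffer of 10 mM HEPES, 150 mM NaCl, 0.05% surfactant P20, pH 7.4 (±3 mM EDTA) with 10% DMSO. Control flow-cell signals were subtracted, surfaces were regenerated with 50 mM NaOH, and isotherms were fitted with BIAcore software.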
# LUV leakage assay = assay: LUV leakage assay
# Procedure: Large unilamellar vesicles were prepared by the extrusion technique. Vesicles were made of Di-Palmoyl-Phosphatidyl Choline (DPPC, Avanti Polar Lipids) with or without 0.1 mol % Lipid II. Vesicles were prepared with 50 mM rhodamine, washed with saline solution and purified by G25 Sephadex column (GE healthcare). Compounds were diluted in saline solution in 96-well plate format and vesicles were added to each well. The increase of fluorescence intensity was measured at 612 nm (excitation at 544 nm) on a Molecular Dynamics spectrophotometer at 20 °C. Compound-induced leakage was expressed relative to the total amount of rhodamine released after lysis of the vesicles by addition of 10 µl of 20% Triton X-100.
# [3] = tested on: Streptococcus pneumonia (PRSP) MMX884; assay: Broth microdilution susceptibility testing (CLSI); format: cell-based, Streptococcus pneumoniae; details: Streptococcus pneumoniae, PRSP, read-out: MIC Streptococcus pneumonia (PRSP) 884-NA
# Procedure: The antibacterial activity of defensin mimetics against Staphylococcus aureus ATCC 29213 and Escherichia coli 25922 was carried out in a 96-well turbidimetric assay essentially as described previously with the following modifications: bacteria were exposed for 30 min to compounds in 10 mM phosphate buffer containing 5% DMSO prior to addition of 2× Muller-Hinton medium. Bacterial growth was monitored for 12 hours and data were analyzed as described. Determination of MICs was performed by Micromyx, LLC (Kalamazoo, Michigan) according to CLSI standards.
# [4] = NMR interaction with Lipid II; format: binding; details: 1D proton chemical shift changes on addition to 3-Lipid II
# Procedure: The NMR samples consisted of 0.15 mM Lipid II, 0.15 mM BAS00127538 compound, or 0.15 mM Lipid II+0.15 mM BAS00127538 compound. All samples were dissolved in 90% double distilled H20+10% DMSO, incubated for 30 minutes, freeze-dried, and then dissolved in 300 µL of d6-DMSO. NMR experiments were carried out at 25°C on an 800 MHz Bruker Avance NMR spectrometer (800.27 MHz for protons) equipped with a pulse-field gradient unit, four frequency channels, and a triple resonance TXI cryoprobe (Bruker Biospin, Billerica, MA). 1D proton experiments were collected to probe for chemical shift changes and 2D TOCSY (30, 60, and 90 msec spinlock times), 2D NOESY (150 and 300 msec mixing times), and natural abundance ^13C-HSQC experiments were collected to determine proton and carbon chemical shift assignments.
# human red blood cells = assay: Red Blood Cell (RBC) lysis; format: cell-based; details: human RBCs, 30 min, room temperature, up to 16× MIC
# Procedure: The method described by Stasiuk et al. was followed in general. Defibrinated human blood (Valley BioMedical) was washed three times with buffer (10 mM Tris-HCl, pH 7.4, 0.9% NaCl) and resuspended to a final concentration of 3% RBCs immediately prior to performing the assay. One hundred eighty microliters of RBCs were added to 1020 µl buffer containing various concentrations of the investigational compound. […] DMSO alone (5% final concentration) served as the negative control to subtract the background, while a reaction with water substituted for buffer served as a positive control that completely lyses the RBCs. […] Incubation of compounds and RBCs proceeded for 30 minutes at room temperature, followed by centrifugation at 1,300× g for 5 minutes to pellet the RBCs. Finally, 300 µl of the supernatant was removed to a 96-well plate and the released hemoglobin was measured at A540 using a SpectraMax (Molecular Dynamics) plate reader. Prism (GraphPad) software was used for data analysis. Results were expressed as percent lysis compared to treatment of RBCs with deionized water, which completely ruptures the membrane. Analyses were performed by Micromyx, LLC (Kalamazoo, Michigan).
Structure (SMILES),survival (S. aureus ATCC 29213),IC50 at 4 h [1] [µM],Binding on Lipid II? [2],Kd ([2]; immobilized 3-Lipid II) [µM],leakage of LUVs (LUV leakage assay; 8 µg/ml (16× MIC for S. aureus)),effect of Lipid II on compound-induced lysis of LUVs (LUV leakage assay; LUVs with vs without Lipid II),MIC [3] [mg/L],interaction with Lipid II by NMR [4],lysis of red blood cells (human red blood cells),membrane rupture in LUVs (LUV leakage assay; LUVs with or without Lipid II)
"CN1/C(=C/C=C/c2cc(-c3ccccc3)cc(-c3ccccc3)[o+]2)C(C)(C)c2ccccc21 [BAS00127538, 2,4-diphenyl-6-[(1E)-3-[(2E)-1,3,3-trimethyl-2,3-dihydro-1H-indol-2-ylidene]prop-1-en-1-yl]-1$l^4-pyran-1-ylium]",4 out of five animals,14.5,Yes,1.71,significant leakage,reduced by the presence of Lipid II,8,found to interact,does not induce lysis of red blood cells,–
CN(C)c1ccc(/C=C/c2cc(-c3ccccc3)[o+]c(-c3ccccc3)c2)cc1 [Compound 1499-1221],–,18.6,No,–,–,–,> 8,could not be confirmed,significant membrane rupture,significant membrane rupture in LUVs irrespective of Lipid II
